Assay results taken from patent US8461183B2, “PPAR agonist compounds, preparation and uses” (Genfit, priority 2008, dated 2013).

Experiments:
Format in all cases: cell-based
hPPARδ = target: T1, hPPARδ (Homo sapiens, UniProt Q03181); assay: Gal4-hPPARδ chimera transactivation (luciferase) in COS-7 cells; details: COS-7 cells, Gal4-hPPARδ, 24 hours; for EC50: luciferase, read-out: PPARδ EC50; for Emax: relative to maximum activation obtained with GW501516, read-out: PPARδ TOP % (maximum activation)
T1 construct: corresponding to the DEF domains (structural elements of the promoter of the PPARs: D=hinge, EF=ligand fixation domain and AF2 fixation site); expressed in transfected cells; host or cells: COS-7 (monkey kidney fibroblasts)
T1 sequence (Q03181 211-439 limits assumed): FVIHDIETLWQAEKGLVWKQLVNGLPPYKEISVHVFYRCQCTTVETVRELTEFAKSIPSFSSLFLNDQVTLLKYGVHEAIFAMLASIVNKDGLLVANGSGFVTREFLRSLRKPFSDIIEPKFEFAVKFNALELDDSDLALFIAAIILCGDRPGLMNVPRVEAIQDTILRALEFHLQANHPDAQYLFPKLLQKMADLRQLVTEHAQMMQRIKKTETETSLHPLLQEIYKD
Method: (§1) Activation of PPARs is evaluated in vitro on a line of monkey kidney fibroblasts (COS-7) by measuring the transcriptional activity of chimeras consisting of the DNA binding domain of Gal4 transcription factor of yeast and of the ligand binding domain of the various PPARs of human origin (hPPAR).
(§2) The COS-7 cells are from ATCC and are cultivated in DMEM medium supplemented with 10% (vol/vol) of fetal calf serum, 1% of penicillin/streptomycin (Biochrom, AG), 1% of amino acids (Gibco) and 1% of sodium pyruvate (Gibco). The cells are incubated at 37° C. in a humid atmosphere containing 5% CO2.
(§3) The plasmids Gal4(RE)_TkpGL3, pGal4-hPPARα, pGal4-hPPARγ, pGal4-hPPARδ and pGal4-φ are described in the literature (Raspe E et al., 1999). The constructs pGal4-hPPARα, pGal4-hPPARγ and pGal4-hPPARδ were obtained by cloning, into the pGal4-φ vector, DNA fragments amplified by PCR corresponding to the DEF domains (structural elements of the promoter of the PPARs: D=hinge, EF=ligand fixation domain and AF2 fixation site) of the human nuclear receptors PPAα, PPARγ and PPARδ.
(§4) The adherent COS-7 cells are transfected with 40 μg of DNA per 225 cm^2 flask, with a pGal4-hPPAR/Gal4(RE)_TkpGL3 ratio of 1/10, in the presence of 10% of fetal calf serum. The cells are then detached and seeded in the absence of serum in 384-well plates (2×10^4 cells/well) then incubated for 4 hours at 37° C. The compounds are then diluted in a 96-well plate and then transferred to the 384-well plate. Activation with the test compounds is effected for a further 24 hours at 37° C. in the presence of 1% of synthetic serum Ultroser™ (Biosepra). These last 2 stages are automated by means of a Genesis Freedom 200™ station (Tecan). At the end of the experiment, the cells are lysed and the luciferase activity is determined using the Steady-Lite™ HTS (Perkin Elmer) according to the supplier's recommendations.
(§5) The test data are summarized in Table 8-1 below, which presents, for each compound, the values of maximum activation (TOP %) and the EC50 values measured for each isoform of PPAR.

hPPARγ = target: T2, hPPARγ (Homo sapiens, UniProt P37231); assay: Gal4-hPPARγ chimera transactivation (luciferase) in COS-7 cells; details: 24 hours; for EC50: luciferase, read-out: PPARγ EC50; for Emax: relative to maximum activation obtained with rosiglitazone, read-out: PPARγ TOP % (maximum activation)
T2 construct: corresponding to the DEF domains (structural elements of the promoter of the PPARs: D=hinge, EF=ligand fixation domain and AF2 fixation site); expressed in transfected cells; host or cells: COS-7 (monkey kidney fibroblasts)
T2 sequence (P37231 238-503 limits assumed): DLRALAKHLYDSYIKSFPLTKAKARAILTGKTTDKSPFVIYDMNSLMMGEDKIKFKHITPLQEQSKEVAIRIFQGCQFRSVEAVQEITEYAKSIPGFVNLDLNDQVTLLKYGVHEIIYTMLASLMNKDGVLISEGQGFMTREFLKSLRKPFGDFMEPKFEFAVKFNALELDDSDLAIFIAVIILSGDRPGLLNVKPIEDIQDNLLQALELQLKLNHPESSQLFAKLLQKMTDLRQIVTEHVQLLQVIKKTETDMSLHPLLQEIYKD
Method: as §1, §2, §3, §4, §5

hPPARα = target: T3, hPPARα (Homo sapiens, UniProt Q07869); assay: Gal4-hPPARα chimera transactivation (luciferase) in COS-7 cells; details: for Emax: relative to maximum activation obtained with fenofibric acid, read-out: PPARα TOP % (maximum activation); for Emax / EC50: COS-7 cells, Gal4-hPPARα, 24 hours; for EC50: luciferase, read-out: PPARα EC50
T3 construct: corresponding to the DEF domains (structural elements of the promoter of the PPARs: D=hinge, EF=ligand fixation domain and AF2 fixation site); expressed in transfected cells; host or cells: COS-7 (monkey kidney fibroblasts)
T3 sequence (Q07869 239-466 limits assumed): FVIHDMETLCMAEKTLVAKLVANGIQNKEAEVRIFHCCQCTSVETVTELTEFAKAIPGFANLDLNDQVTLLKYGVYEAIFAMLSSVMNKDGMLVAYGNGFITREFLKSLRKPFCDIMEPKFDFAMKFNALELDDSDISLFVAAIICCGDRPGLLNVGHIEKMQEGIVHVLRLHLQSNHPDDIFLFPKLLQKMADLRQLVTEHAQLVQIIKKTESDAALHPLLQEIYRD
Method: as §1, §2, §3, §4
The test data are summarized in Table 8-1 below, which presents, for each compound, the values of maximum activation (TOP %) and the EC50 values measured for each isoform of PPAR. The values of maximum activation are expressed in percentages relative to the maximum activations obtained with reference agonists: fenofibric acid for PPARα, rosiglitazone for PPARγ and 2-methyl-4-((4-methyl-2-(4-trifluoromethylphenyl)-1,3-thiazol-5-yl)-methylsulfanyl)phenoxyacetic acid (also called GW501516) for PPARδ.

| SMILES | EC50 (hPPARδ) [µM] | Emax (hPPARδ) [%] | EC50 (hPPARγ) [µM] | Emax (hPPARγ) [%] | Emax (hPPARα) [%] | EC50 (hPPARα) [µM] | selectivity among hPPAR isoforms (hPPARα) (hPPARα; Gal4-hPPAR chimeras, COS-7) |
| --- | --- | --- | --- | --- | --- | --- | --- |
| COc1nc(-c2ccc(C(F)(F)F)cc2)ccc1COc1ccc(OC(C)(C)C(=O)O)cc1 [Cpd 21, 2-(4-((2-methoxy-6-(4-(trifluoromethyl)phenyl)pyridin-3-yl)methoxy)-phenoxy)-2-methylpropanoic acid] | 0.276 | 100 | 1.43 | 51.5 | 70.2 | – | – |
| COc1nc(-c2ccccc2)ccc1CNc1cccc(OC(C)(C)C(=O)O)c1 [Cpd 13, 2-(3-(((2-methoxy-6-phenylpyridin-3-yl)methyl)amino)phenoxy)-2-methyl-propanoic acid] | 3.22 | 96.1 | 6.93 | 24.1 | 61.9 | 1.43 | – |
| COc1nc(-c2ccccc2)c(-c2ccccc2)cc1CNc1ccc(SCC(=O)O)cc1 [Cpd 28, 2-(4-(((2-methoxy-5,6-diphenylpyridin-3-yl)methyl)amino)phenylthio)ethanoic acid] | 25.2 | 49.1 | 11.3 | 45 | 55.4 | 1.74 | – |
| COc1nc(-c2ccccc2)ccc1CNc1ccc(SC(C)(C)C(=O)O)cc1 [Cpd 11, 2-(4-(((2-methoxy-6-phenylpyridin-3-yl)methyl)amino)phenylthio)-2-methyl-propanoic acid] | 3 | 85.7 | 2.45 | 54.5 | 86.2 | 0.022 | high selectivity for hPPARα |
| O=C(O)COc1ccc(OCc2ccc(-c3ccccc3)nc2Sc2ccccc2)cc1 [Cpd 25, 2-(4-((2-phenylthio-6-(phenyl)pyridin-3-yl)methoxy)phenoxy)ethanoic acid] | 6.38 | 71 | 8.29 | 38.3 | 53.9 | 6.96 | – |
| CC(Oc1ccc(NCc2ccc(-c3ccccc3)nc2OC(C)(C)C)cc1)C(=O)O (stereo not drawn) [Cpd 10, 2-(4-(((2-tert-butyloxy-6-phenylpyridin-3-yl)methyl)amino)phenoxy)propanoic acid] | 0.754 | 96.7 | 10.5 | 25.6 | 53.2 | 6.06 | – |
| COc1nc(-c2ccccc2)ccc1CNc1ccc(SC(C(=O)O)c2ccccc2)cc1 (stereo not drawn) [Cpd 32, 2-(4-(((2-methoxy-6-phenylpyridin-3-yl)methyl)amino)phenylthio)-2-phenyl-acid] | 22.8 | 3.59 | 2.51 | 66.6 | 70.4 | 1.48 | – |
| COc1nc(-c2ccccc2)ccc1CNc1ccc(OC(C)C(=O)O)cc1 (stereo not drawn) [Cpd 5, 2-(4-(((2-methoxy-6-phenylpyridin-3yl)methyl)amino)phenoxy)propanoic acid] | 6.17 | 71 | 3.72 | 57.3 | 67.5 | 0.389 | – |
| COc1nc(-c2ccccc2)c(Br)cc1CNc1ccc(SCC(=O)O)cc1 [Cpd 29, 2-(4-(((2-methoxy-5-bromo-6-phenylpyridin-3-yl)methyl)amino)phenylthio)-ethanoic acid] | 10.1 | 85.6 | 8.43 | 57.7 | 59.3 | 3.85 | – |
| O=C(O)COc1ccc(OCc2ccc(-c3ccccc3)nc2OC2CCCCC2)cc1 [Cpd 18, 2-(4-((2-cyclohexyloxy-6-phenylpyridin-3-yl)methoxy)phenoxy)ethanoic acid] | 3.97 | 97.1 | 14.2 | 26.1 | 35.3 | 10.7 | – |

Next, values leading:

| EC50 (hPPARδ) [µM] | Emax (hPPARδ) [%] | EC50 (hPPARγ) [µM] | Emax (hPPARγ) [%] | Emax (hPPARα) [%] | EC50 (hPPARα) [µM] | selectivity among hPPAR isoforms (hPPARα) (hPPARα; Gal4-hPPAR chimeras, COS-7) | SMILES |
| --- | --- | --- | --- | --- | --- | --- | --- |
| 10.5 | 74.5 | 12.4 | 65 | 49.9 | 4.55 | – | COc1nc(-c2ccccc2)ccc1CN(C)c1ccc(CCC(=O)O)cc1 [Cpd 33, 3-(4-(((2-methoxy-6-phenylpyridin-3-yl)methyl)(methyl)amino)phenyl)-propanoic acid] |
| 1.93 | 93.1 | 2.23 | 70.9 | 50.5 | 1.29 | – | CCOc1nc(-c2ccccc2)ccc1CNc1ccc(CCC(=O)O)cc1 [Cpd 51, 3-(4-(((2-ethoxy-6-phenylpyridin-3-yl)methyl)amino)phenyl)propanoic acid] |
| 3.2 | 92.1 | 4.85 | 42.2 | 34.5 | 7.97 | – | CC(C)Oc1nc(-c2ccccc2)ccc1CNc1ccc(CCC(=O)O)cc1 [Cpd 54, 3-(4-(((2-isopropyloxy-6-phenylpyridin-3-yl)methyl)amino)phenyl)propanoic acid] |
| 1.39 | 95.3 | 1.94 | 100 | 52.2 | 0.175 | – | COc1nc(-c2ccc(-c3ccccc3)cc2)ccc1CNc1ccc(CCC(=O)O)cc1 [Cpd 39, 3-(4-(((2-methoxy-6-(parabiphenyl)pyridin-3-yl)methyl)amino)phenyl)-propanoic acid] |
| 3.04 | 86.5 | 4.36 | 65.8 | 16.5 | 5.66 | – | COc1nc(-c2ccccc2)ccc1CNc1ccc(C(CC(=O)O)c2ccccc2)cc1 (stereo not drawn) [Cpd 42, 3-(4-((2(-methoxy-6-phenylpyridin-3-yl)methyl)amino)phenyl)-3-phenyl-propanoic acid] |
| 0.08 | 107 | 0.955 | 87.2 | 66.7 | 0.165 | – | COc1nc(-c2cccc(C(F)(F)F)c2)ccc1CNc1ccc(CCC(=O)O)cc1 [Cpd 40, 3-(4-(((2-methoxy-6-(3-(trifluoromethyl)phenyl)pyridin-3-yl)methyl)amino)-phenyl)propanoic acid] |
| 10.3 | 9.86 | 1.01 | 78 | 48.6 | 5.14 | – | CC#CC(CC(=O)O)c1ccc(OCc2ccc(-c3ccccc3)nc2OC)cc1 (stereo not drawn) [Cpd 53, 3-(4-((2-methoxy-6-phenylpyridin-3-yl)methoxy)phenyl)hex-4-ynoic acid] |
| 16.7 | 68.1 | 9.57 | 58.2 | 35.9 | 26.4 | – | COc1nc(OC)c(-c2ccccc2)cc1CNc1ccc(CCC(=O)O)cc1 [Cpd 48, 3-(4-(((2,6-dimethoxy-5-phenylpyridin-3-yl)methyl)amino)phenyl)propanoic acid] |
